This passage reports GI50 and TGI results from PubChem BioAssay (NCI).

SMILES strings stand for the structures. Where “and” joins values, the source holds several entries; their conditions need not be identical. Equal values may be shown once.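 Growth conditions: 96-well plates. Treatment: test compound, 48 hours, 5 concentrations. Analysis: linear interpolation between bracketing concentrations; unreached endpoints set to highest concentration. The concentration for 50% growth inhibition is given as GI50. TGI denotes the concentration required for complete inhibition of growth.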

Some test systems named below: COLO 205 colon; NCI-H522 lung; HCT-116 colon; RPMI-8226 leukemia; IGROV1 ovarian; A549 NSCLC; EKVX NSCLC; 786-0 renal; HT29 colon; OVCAR-8 ovarian.
What all share (experiment): NCI anticancer screen, dose series, 48 h

As for `CC(C)NCCCNC1=C(Cl)C(=O)c2ccccc2C1=O`, the GI50 in the test on COLO 205 colon was 1.87 µM; with NCI-H522 lung it was 8.69 µM; in the test on HCT-116 colon, 2.12 µM; with RPMI-8226 leukemia, 3.48 µM; in the test on IGROV1 ovarian, 2.33 µM; in the test on A549 NSCLC, 11.2 µM. Further, the GI50 in the test on EKVX NSCLC is 1.4 µM; in the test on 786-0 renal, 18.1 µM; with HT29 colon, 2.5 µM; in the test on OVCAR-8 ovarian, 2.13 µM. Moreover, the TGI in the test with COLO 205 colon is 3.56 µM; in the test with NCI-H522 lung it was 21.8 µM; in the test on HCT-116 colon, 5.28 µM; with RPMI-8226 leukemia it was 19.2 µM; in the test with IGROV1 ovarian it was 5.16 µM; with A549 NSCLC, 33.5 µM. Further, the TGI with EKVX NSCLC is 2.83 µM; in the test with 786-0 renal, 33.5 µM; in the test on HT29 colon, 5.12 µM; in the test with OVCAR-8 ovarian, 5.1 µM.

`O=C(O)C1(C(=O)O)CCN(S(=O)(=O)c2ccccc2)CC1`: the TGI in the test with COLO 205 colon, in the test with NCI-H522 lung, in the test with HCT-116 colon, in the test on RPMI-8226 leukemia, with IGROV1 ovarian and in the test with A549 NSCLC was > 100 µM in each case. Also, the TGI in the test with EKVX NSCLC, in the test with 786-0 renal, in the test with HT29 colon and in the test on OVCAR-8 ovarian was > 100 µM each time.

For `CC(C)[C@H](COC(C)(C)C)N=CN1CSc2ccccc21`, the TGI with COLO 205 colon was 39.4 µM; in the test with NCI-H522 lung it was > 100 µM; in the test on HCT-116 colon, 79.2 µM; in the test on RPMI-8226 leukemia it was 54 µM; in the test on IGROV1 ovarian, > 100 µM; with A549 NSCLC, > 100 µM. Further, the TGI in the test on EKVX NSCLC, in the test with 786-0 renal, in the test on HT29 colon and with OVCAR-8 ovarian was > 100 µM each time.

For `CCCCCCCCCCCCCCCC[N+](C)(C)C`, the GI50 was 0.16 µM and 1.19 µM in the test with COLO 205 colon; 0.139 µM in the test on NCI-H522 lung; 0.258 µM and 1.01 µM in the test with HCT-116 colon; 0.142 µM in the test on RPMI-8226 leukemia; 0.154 µM with IGROV1 ovarian; 0.577 µM and 1.59 µM with EKVX NSCLC. The GI50 in the test on 786-0 renal was 0.966 µM; in the test with HT29 colon, 0.0658 µM and 0.516 µM; with OVCAR-8 ovarian it was 0.212 µM. Also, the TGI was 0.295 µM and 2.75 µM in the test with COLO 205 colon; 0.329 µM in the test with NCI-H522 lung; 1.04 µM and 2.57 µM in the test with HCT-116 colon; 0.792 µM with RPMI-8226 leukemia; 0.359 µM in the test on IGROV1 ovarian; 0.417 µM and 3.78 µM in the test with A549 NSCLC. Also, the TGI in the test on EKVX NSCLC is 3.17 µM and 4.28 µM; in the test with 786-0 renal, 2.43 µM; with HT29 colon it was 1.03 µM and 1.97 µM; in the test with OVCAR-8 ovarian, 0.536 µM.

Consider `Cc1ccc2nc(NC(=O)CSC(=S)N3CCN(Cc4ccccc4)CC3)sc2c1`, for which the GI50 with COLO 205 colon was > 100 µM; in the test on NCI-H522 lung, > 100 µM; with HCT-116 colon, > 96.7 µM; in the test with RPMI-8226 leukemia it was 75.9 µM; with IGROV1 ovarian it was > 100 µM; with A549 NSCLC, > 100 µM. For the same compound, the GI50 in the test with EKVX NSCLC was > 100 µM; in the test on 786-0 renal it was > 100 µM; with HT29 colon it was 75.2 µM; in the test with OVCAR-8 ovarian it was > 100 µM. Further, the TGI with COLO 205 colon, with NCI-H522 lung, in the test on HCT-116 colon, in the test with RPMI-8226 leukemia, with IGROV1 ovarian and with A549 NSCLC was > 100 µM in each case. For the same compound, the TGI in the test on EKVX NSCLC, in the test with 786-0 renal, in the test on HT29 colon and in the test with OVCAR-8 ovarian was > 100 µM in each case.

`CCCCCn1ncc(-c2c(O)c(O)cc3c(O)c(-c4c(C)cc5c(-c6cnn(CCCCC)n6)c(O)c(O)cc5c4O)c(C)cc23)n1`: the GI50 in the test on COLO 205 colon was 0.595 µM; with NCI-H522 lung, 0.0984 µM; in the test with HCT-116 colon, 0.0262 µM; in the test with RPMI-8226 leukemia, 0.109 µM; in the test with IGROV1 ovarian, 0.182 µM; in the test with A549 NSCLC, 0.117 µM. Further, the GI50 in the test on EKVX NSCLC was 0.177 µM; in the test on 786-0 renal, 0.171 µM; with HT29 colon, 0.12 µM; in the test on OVCAR-8 ovarian, 0.125 µM. The TGI was 3.22 µM in the test on COLO 205 colon; 1.07 µM with NCI-H522 lung; 4.07 µM in the test on HCT-116 colon; 4.9 µM with RPMI-8226 leukemia; 4.75 µM in the test with IGROV1 ovarian; 4.47 µM in the test on A549 NSCLC. Moreover, the TGI in the test with EKVX NSCLC came out at 4.61 µM; with 786-0 renal, 2.61 µM; with HT29 colon, 3.45 µM; in the test with OVCAR-8 ovarian, 3.2 µM.

With `CN1CCN(c2ccc3nc(-c4ccc5nc(-c6ccc(C(F)(F)F)cc6)[nH]c5c4)[nH]c3c2)CC1`, the GI50 in the test on COLO 205 colon is 1.37 µM; in the test with NCI-H522 lung it was 1.47 µM; with HCT-116 colon it was 1.28 µM; with RPMI-8226 leukemia, 2.06 µM; in the test with IGROV1 ovarian, 6.13 µM; with A549 NSCLC, 1.94 µM. Besides, the GI50 in the test on EKVX NSCLC was 2.06 µM; with 786-0 renal, 3.3 µM; in the test on HT29 colon, 1.41 µM; with OVCAR-8 ovarian it was 2.02 µM. For the same compound, the TGI in the test on COLO 205 colon was found to be 2.93 µM; in the test on NCI-H522 lung it was 3.39 µM; in the test with HCT-116 colon, 2.6 µM; in the test on RPMI-8226 leukemia, 4.51 µM; in the test on IGROV1 ovarian, 21.7 µM; with A549 NSCLC it was 3.91 µM. Further, the TGI was 4.38 µM with EKVX NSCLC, 12.7 µM in the test on 786-0 renal, 3.13 µM with HT29 colon and 4.7 µM with OVCAR-8 ovarian.

As for `Cc1cc(Cl)ccc1OCC(=O)Oc1c(Cl)c(Cl)c(Cl)c(Cl)c1Cl`, the TGI with COLO 205 colon turned out to be 78 µM; in the test with NCI-H522 lung, 48.4 µM; with HCT-116 colon, 45.8 µM; with RPMI-8226 leukemia, 61.7 µM; with IGROV1 ovarian, 79.5 µM; in the test with A549 NSCLC, 66.3 µM. In addition, the TGI in the test with EKVX NSCLC came to 56.4 µM; with 786-0 renal, 85.5 µM; in the test with HT29 colon it was 69.1 µM; in the test with OVCAR-8 ovarian it was 66.8 µM.

On to `CO/N=C(\COc1ccc2c(=O)cc(-c3ccccc3)oc2c1)c1ccc(OC)cc1`, for which the GI50 in the test with COLO 205 colon is > 100 µM; in the test on NCI-H522 lung it was > 100 µM; with HCT-116 colon, > 100 µM; in the test with RPMI-8226 leukemia it was 74 µM; in the test with IGROV1 ovarian it was > 100 µM; with A549 NSCLC, > 100 µM. Further, the GI50 in the test on EKVX NSCLC, in the test with 786-0 renal, in the test on HT29 colon and in the test with OVCAR-8 ovarian was > 100 µM throughout. Further, the TGI in the test on COLO 205 colon, in the test on NCI-H522 lung, with HCT-116 colon, in the test with RPMI-8226 leukemia, in the test with IGROV1 ovarian and in the test on A549 NSCLC was > 100 µM throughout. Besides, the TGI with EKVX NSCLC, with 786-0 renal, with HT29 colon and in the test on OVCAR-8 ovarian was > 100 µM throughout.

`CN1CCN(c2ccc(NC3=C(Cl)C(=O)c4ncccc4C3=O)cc2C(F)(F)F)CC1`: the GI50 was 1.89 µM in the test on COLO 205 colon; 1.63 µM with NCI-H522 lung; 1.69 µM in the test with HCT-116 colon; 0.874 µM with RPMI-8226 leukemia; 1.56 µM in the test on IGROV1 ovarian; 18.8 µM with A549 NSCLC. For the same compound, the GI50 with EKVX NSCLC was 2.66 µM; in the test on 786-0 renal, 1.84 µM; in the test with HT29 colon it was 2.34 µM; with OVCAR-8 ovarian it was 3.14 µM. Further, the TGI with COLO 205 colon amounted to 4.63 µM; in the test on NCI-H522 lung, 3.39 µM; with HCT-116 colon, 3.27 µM; with RPMI-8226 leukemia, 6.66 µM; in the test with IGROV1 ovarian it was 3.18 µM; with A549 NSCLC it was 38 µM. Moreover, the TGI with EKVX NSCLC came to 8.44 µM; with 786-0 renal, 3.32 µM; in the test on HT29 colon, 5.56 µM; in the test on OVCAR-8 ovarian, 12.4 µM.

For the compound `CC(C)(C)c1cc2c(OP(c3ccccc3)c3ccccc3)c(c1)Cc1cc(C(C)(C)C)cc(c1OP(c1ccccc1)c1ccccc1)Cc1cc(C(C)(C)C)cc(c1OP(c1ccccc1)c1ccccc1)Cc1cc(C(C)(C)C)cc(c1OP(c1ccccc1)c1ccccc1)C2`, the GI50 is > 50 µM in the test on COLO 205 colon; 44.6 µM with NCI-H522 lung; 35.9 µM in the test on RPMI-8226 leukemia; > 50 µM with IGROV1 ovarian; > 50 µM in the test on A549 NSCLC; > 50 µM with EKVX NSCLC. For the same compound, the GI50 in the test on 786-0 renal is > 50 µM; in the test on HT29 colon it was 47.8 µM; in the test with OVCAR-8 ovarian, > 50 µM. The TGI was > 50 µM in the test with COLO 205 colon; > 50 µM in the test on NCI-H522 lung; > 5 µM with HCT-116 colon; > 50 µM in the test with RPMI-8226 leukemia; > 50 µM in the test on IGROV1 ovarian; > 50 µM with A549 NSCLC. The TGI in the test on EKVX NSCLC, with 786-0 renal, with HT29 colon and with OVCAR-8 ovarian was > 50 µM each time.

Take `O=C1c2ccccc2C(=O)N1C/C=N/NS(=O)(=O)c1ccc(Cl)cc1`: the TGI in the test on COLO 205 colon, in the test on NCI-H522 lung, in the test on HCT-116 colon, with RPMI-8226 leukemia, in the test with IGROV1 ovarian and with A549 NSCLC was > 100 µM in each case. Moreover, the TGI with EKVX NSCLC, in the test with 786-0 renal, with HT29 colon and in the test on OVCAR-8 ovarian was > 100 µM each time.

For the compound `NC(CCc1nc(-c2ccccc2)cs1)C(=O)O` (stereo not drawn), the TGI in the test on COLO 205 colon, in the test with NCI-H522 lung, with HCT-116 colon, in the test with RPMI-8226 leukemia, with IGROV1 ovarian and in the test with A549 NSCLC was > 100 µM throughout. In addition, the TGI in the test on EKVX NSCLC, in the test on 786-0 renal, in the test on HT29 colon and in the test with OVCAR-8 ovarian was > 100 µM in each case.
